Reference: PubChem BioAssay AID1963447 (Molecular Pharmacology Branch, DTP, NCI, 2024)
Several values for one entry are separate records, joined by “and”; a condition that tells them apart may be missing. Equal values may be shown once. Values belong to the compound of their own block, whether it stands above or below them.

Tested on: 885512-296-R-J2-PDC complex spheroid growth, % test/control
Assay: Anticancer human tumor 885512-296-R-J2-PDC patient-derived breast carcinoma cell line growth inhibition [Asc]
Settings: for viability, T/C: stronger effect = lower value
Procedure, shortened: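 Spheroid model: tumor line + HUVEC + hMSC. Single agents and combinations; top conc. at/near clinical Cmax (10 microM if undetermined), half-log dilutions. DMSO stocks at 800-fold test concentration.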

[1] = curve of first compound, second compound 0.03 µM
[2] = curve of first compound, second compound 0.0949 µM
[3] = curve of first compound, second compound 0.3 µM
[4] = curve of first compound, second compound 0.949 µM
[5] = curve of first compound, second compound 3 µM
[6] = second compound 0.03 µM, first compound 0.00316 µM
[7] = second compound 0.03 µM, first compound 0.01 µM
[8] = second compound 0.03 µM, first compound 0.0316 µM
[9] = second compound 0.03 µM, first compound 0.1 µM
[10] = second compound 0.03 µM, first compound 0.316 µM
[11] = second compound 0.03 µM, first compound 1 µM
[12] = second compound 0.0949 µM, first compound 0.00316 µM
[13] = second compound 0.0949 µM, first compound 0.01 µM
[14] = second compound 0.0949 µM, first compound 0.0316 µM
[15] = second compound 0.0949 µM, first compound 0.1 µM
[16] = second compound 0.0949 µM, first compound 0.316 µM
[17] = second compound 0.0949 µM, first compound 1 µM
[18] = second compound 0.3 µM, first compound 0.00316 µM
[19] = second compound 0.3 µM, first compound 0.01 µM
[20] = second compound 0.3 µM, first compound 0.0316 µM
[21] = second compound 0.3 µM, first compound 0.1 µM
[22] = second compound 0.3 µM, first compound 0.316 µM
[23] = second compound 0.3 µM, first compound 1 µM
[24] = second compound 0.949 µM, first compound 0.00316 µM
[25] = second compound 0.949 µM, first compound 0.01 µM
[26] = second compound 0.949 µM, first compound 0.0316 µM
[27] = second compound 0.949 µM, first compound 0.1 µM
[28] = second compound 0.949 µM, first compound 0.316 µM
[29] = second compound 0.949 µM, first compound 1 µM
[30] = second compound 3 µM, first compound 0.00316 µM
[31] = second compound 3 µM, first compound 0.01 µM
[32] = second compound 3 µM, first compound 0.0316 µM
[33] = second compound 3 µM, first compound 0.1 µM
[34] = second compound 3 µM, first compound 0.316 µM
[35] = second compound 3 µM, first compound 1 µM
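Further: spheroids exposed to compounds for seven days.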
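Wherever viability, T/C is given: 100% = DMSO vehicle control wells.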

IC50 [1]: > 1000 nM
IC50 [2]: > 1000 nM
IC50 [3]: > 1000 nM
IC50 [4]: > 1000 nM
IC50 [5]: < 3.16 nM
SMILES: CCN1CCN(Cc2ccc(Nc3ncc(F)c(-c4cc(F)c5nc(C)n(C(C)C)c5c4)n3)nc2)CC1 + CCN1C(C(=O)NC23CCC(C(=O)O)(CC2)CC3)C(c2cccc(Cl)c2F)C2(C(=O)Nc3cc(Cl)ccc32)C12CCCCC2
viability, T/C [6]: 98.5%
viability, T/C [7]: 101%
viability, T/C [8]: 81.3%
viability, T/C [9]: 76.4%
viability, T/C [10]: 79.1%
viability, T/C [11]: 62%
viability, T/C [12]: 96.1%
viability, T/C [13]: 91.8%
viability, T/C [14]: 80.5%
viability, T/C [15]: 64.1%
viability, T/C [16]: 80.8%
viability, T/C [17]: 59.9%
viability, T/C [18]: 74.2%
viability, T/C [19]: 90.3%
viability, T/C [20]: 75.2%
viability, T/C [21]: 69%
viability, T/C [22]: 66%
viability, T/C [23]: 56.3%
viability, T/C [24]: 69.7%
viability, T/C [25]: 58.7%
viability, T/C [26]: 60.3%
viability, T/C [27]: 50.5%
viability, T/C [28]: 50.4%
viability, T/C [29]: 54.9%
viability, T/C [30]: 41.1%
viability, T/C [31]: 35.3%
viability, T/C [32]: 40.8%
viability, T/C [33]: 38.7%
viability, T/C [34]: 37.3%
viability, T/C [35]: 39.4%

IC50 (curve of compound): 2040 nM and 2410 nM and 3230 nM
SMILES: C=C(F)C(=O)N1CCN(c2nc(OCC3CCCN3C)nc3c2CCN(c2cccc4cccc(Cl)c24)C3)CC1CC#N (configuration not stated)
viability, T/C (compound 0.0316 µM): 81.9% and 107% and 97.2%
viability, T/C (compound 0.1 µM): 97% and 114% and 90.5%
viability, T/C (compound 0.316 µM): 104% and 102% and 94.4%
viability, T/C (compound 1 µM): 97.8% and 113% and 110%
viability, T/C (compound 3.16 µM): 22% and 31.8% and 50.9%
viability, T/C (compound 10 µM): 0.17% and 0.15% and 0.14%

IC50 (curve of first compound, second compound 0.01 µM): 2660 nM
IC50 (curve of first compound, second compound 0.0316 µM): 2290 nM
IC50 (curve of first compound, second compound 0.1 µM): 2450 nM
IC50 (curve of first compound, second compound 0.316 µM): 2240 nM
IC50 (curve of first compound, second compound 1 µM): 2240 nM
SMILES: C=C(F)C(=O)N1CCN(c2nc(OCC3CCCN3C)nc3c2CCN(c2cccc4cccc(Cl)c24)C3)CC1CC#N (configuration not stated) + CNC(C)C(=O)NC1CN(S(=O)(=O)c2cccc(S(=O)(=O)N3CCC4CCC(C(=O)NC(c5ccccc5)c5ccccc5)N4C(=O)C(NC(=O)C(C)NC)C3)c2)CCC2CCC(C(=O)NC(c3ccccc3)c3ccccc3)N2C1=O
viability, T/C (second compound 0.01 µM, first compound 0.0316 µM): 88.6%
viability, T/C (second compound 0.01 µM, first compound 0.1 µM): 91.8%
viability, T/C (second compound 0.01 µM, first compound 0.316 µM): 95.7%
viability, T/C (second compound 0.01 µM, first compound 1 µM): 84.8%
viability, T/C (second compound 0.01 µM, first compound 3.16 µM): 43.8%
viability, T/C (second compound 0.01 µM, first compound 10 µM): 0.11%
viability, T/C (second compound 0.0316 µM, first compound 0.0316 µM): 100%
viability, T/C (second compound 0.0316 µM, first compound 0.1 µM): 101%
viability, T/C (second compound 0.0316 µM, first compound 0.316 µM): 100%
viability, T/C (second compound 0.0316 µM, first compound 1 µM): 99.7%
viability, T/C (second compound 0.0316 µM, first compound 3.16 µM): 30.7%
viability, T/C (second compound 0.0316 µM, first compound 10 µM): 0.3%
viability, T/C (second compound 0.1 µM, first compound 0.0316 µM): 105%
viability, T/C (second compound 0.1 µM, first compound 0.1 µM): 102%
viability, T/C (second compound 0.1 µM, first compound 0.316 µM): 102%
viability, T/C (second compound 0.1 µM, first compound 1 µM): 104%
viability, T/C (second compound 0.1 µM, first compound 3.16 µM): 34.9%
viability, T/C (second compound 0.1 µM, first compound 10 µM): 0.09%
viability, T/C (second compound 0.316 µM, first compound 0.0316 µM): 110%
viability, T/C (second compound 0.316 µM, first compound 0.1 µM): 103%
viability, T/C (second compound 0.316 µM, first compound 0.316 µM): 113%
viability, T/C (second compound 0.316 µM, first compound 1 µM): 103%
viability, T/C (second compound 0.316 µM, first compound 3.16 µM): 27.5%
viability, T/C (second compound 0.316 µM, first compound 10 µM): 0.09%
viability, T/C (second compound 1 µM, first compound 0.0316 µM): 114%
viability, T/C (second compound 1 µM, first compound 0.1 µM): 113%
viability, T/C (second compound 1 µM, first compound 0.316 µM): 115%
viability, T/C (second compound 1 µM, first compound 1 µM): 95.3%
viability, T/C (second compound 1 µM, first compound 3.16 µM): 30.5%
viability, T/C (second compound 1 µM, first compound 10 µM): 0.38%

IC50 (curve of compound): 2830 nM and > 3000 nM
SMILES: CCN1C(C(=O)NC23CCC(C(=O)O)(CC2)CC3)C(c2cccc(Cl)c2F)C2(C(=O)Nc3cc(Cl)ccc32)C12CCCCC2 (configuration not stated)
viability, T/C (compound 0.00949 µM): 94.5% and 78.9%
viability, T/C (compound 0.0949 µM): 95.6% [middle of 15 runs]
viability, T/C (compound 0.949 µM): 71.9% [middle of 15 runs]
viability, T/C (compound 3 µM): 46.6% [middle of 15 runs]

IC50 [1]: 4710 nM
IC50 [2]: 5650 nM
IC50 [3]: 5140 nM
IC50 [4]: 5090 nM
IC50 [5]: < 31.6 nM
SMILES: O=C(c1cc(Cc2n[nH]c(=O)c3ccccc23)ccc1F)N1CCN(C(=O)C2CC2)CC1 + CCN1C(C(=O)NC23CCC(C(=O)O)(CC2)CC3)C(c2cccc(Cl)c2F)C2(C(=O)Nc3cc(Cl)ccc32)C12CCCCC2
viability, T/C [8]: 80.5%
viability, T/C [9]: 118%
viability, T/C [10]: 116%
viability, T/C [11]: 92.7%
viability, T/C (second compound 0.03 µM, first compound 3.16 µM): 67.7%
viability, T/C (second compound 0.03 µM, first compound 10 µM): 17.6%
viability, T/C [14]: 98.8%
viability, T/C [15]: 116%
viability, T/C [16]: 107%
viability, T/C [17]: 90.2%
viability, T/C (second compound 0.0949 µM, first compound 3.16 µM): 79.5%
viability, T/C (second compound 0.0949 µM, first compound 10 µM): 22.9%
viability, T/C [20]: 93.3%
viability, T/C [21]: 97.8%
viability, T/C [22]: 89.9%
viability, T/C [23]: 98.1%
viability, T/C (second compound 0.3 µM, first compound 3.16 µM): 69.5%
viability, T/C (second compound 0.3 µM, first compound 10 µM): 23.6%
viability, T/C [26]: 72%
viability, T/C [27]: 81.1%
viability, T/C [28]: 76%
viability, T/C [29]: 77.1%
viability, T/C (second compound 0.949 µM, first compound 3.16 µM): 66.8%
viability, T/C (second compound 0.949 µM, first compound 10 µM): 25.3%
viability, T/C [32]: 45.1%
viability, T/C [33]: 54.7%
viability, T/C [34]: 42.6%
viability, T/C [35]: 47.8%
viability, T/C (second compound 3 µM, first compound 3.16 µM): 47.2%
viability, T/C (second compound 3 µM, first compound 10 µM): 23.5%

IC50 [1]: 127 nM
IC50 [2]: 148 nM
IC50 [3]: 132 nM
IC50 [4]: 55.3 nM
IC50 [5]: < 3.16 nM
SMILES: O=C(c1ccc(F)c(F)c1Nc1ccc(I)cc1F)N1CC(O)([C@@H]2CCCCN2)C1 + CCN1C(C(=O)NC23CCC(C(=O)O)(CC2)CC3)C(c2cccc(Cl)c2F)C2(C(=O)Nc3cc(Cl)ccc32)C12CCCCC2
viability, T/C [6]: 100%
viability, T/C [7]: 74.2%
viability, T/C [8]: 63.5%
viability, T/C [9]: 62%
viability, T/C [10]: 39.4%
viability, T/C [11]: 18.7%
viability, T/C [12]: 89.4%
viability, T/C [13]: 89.3%
viability, T/C [14]: 66.5%
viability, T/C [15]: 57.1%
viability, T/C [16]: 39.1%
viability, T/C [17]: 17.5%
viability, T/C [18]: 83.5%
viability, T/C [19]: 80.6%
viability, T/C [20]: 65.7%
viability, T/C [21]: 55.2%
viability, T/C [22]: 36.8%
viability, T/C [23]: 18.1%
viability, T/C [24]: 67.7%
viability, T/C [25]: 53.4%
viability, T/C [26]: 54%
viability, T/C [27]: 48.8%
viability, T/C [28]: 33.9%
viability, T/C [29]: 17.5%
viability, T/C [30]: 42.7%
viability, T/C [31]: 35.9%
viability, T/C [32]: 31.4%
viability, T/C [33]: 35.4%
viability, T/C [34]: 22.2%
viability, T/C [35]: 14.7%
